Laboratory results taken from ChEMBL document CHEMBL4507265 (2021).

Legend:
[1] = target: RAC-beta serine/threonine-protein kinase (Homo sapiens) (UniProt P31751); conditions: Compound concentration 1000.0 nM
[2] = target: Phosphatidylinositol 4-phosphate 5-kinase type-1 alpha (Homo sapiens) (UniProt Q99755); conditions: Compound concentration 1000.0 nM
[3] = target: Macrophage-stimulating protein receptor (Homo sapiens) (UniProt Q04912); conditions: Compound concentration 1000.0 nM
[4] = target: Serine/threonine-protein kinase Nek10 (Homo sapiens) (UniProt Q6ZWH5); conditions: Compound concentration 1000.0 nM
[5] = target: Mitogen-activated protein kinase kinase kinase kinase 3 (Homo sapiens) (UniProt Q8IVH8); conditions: Compound concentration 1000.0 nM
[6] = target: Serine/threonine-protein kinase WNK2 (Homo sapiens) (UniProt Q9Y3S1); conditions: Compound concentration 1000.0 nM
[7] = target: Mitogen-activated protein kinase 15 (Homo sapiens) (UniProt Q8TD08); conditions: Compound concentration 1000.0 nM
[8] = target: TGF-beta receptor type-1 (Homo sapiens) (UniProt P36897); conditions: Compound concentration 1000.0 nM
[9] = target: Tyrosine-protein kinase SYK (Homo sapiens) (UniProt P43405); conditions: Compound concentration 1000.0 nM
[10] = target: Tyrosine-protein kinase JAK1 (Homo sapiens) (UniProt P23458); conditions: Compound concentration 1000.0 nM
[11] = target: Tyrosine-protein kinase Fgr (Homo sapiens) (UniProt P09769); conditions: Compound concentration 1000.0 nM
[12] = target: T1, Muscarinic acetylcholine receptor M2 (Homo sapiens) (UniProt P08172); conditions: Compound concentration 10.0 uM
T1 sequence (whole entry): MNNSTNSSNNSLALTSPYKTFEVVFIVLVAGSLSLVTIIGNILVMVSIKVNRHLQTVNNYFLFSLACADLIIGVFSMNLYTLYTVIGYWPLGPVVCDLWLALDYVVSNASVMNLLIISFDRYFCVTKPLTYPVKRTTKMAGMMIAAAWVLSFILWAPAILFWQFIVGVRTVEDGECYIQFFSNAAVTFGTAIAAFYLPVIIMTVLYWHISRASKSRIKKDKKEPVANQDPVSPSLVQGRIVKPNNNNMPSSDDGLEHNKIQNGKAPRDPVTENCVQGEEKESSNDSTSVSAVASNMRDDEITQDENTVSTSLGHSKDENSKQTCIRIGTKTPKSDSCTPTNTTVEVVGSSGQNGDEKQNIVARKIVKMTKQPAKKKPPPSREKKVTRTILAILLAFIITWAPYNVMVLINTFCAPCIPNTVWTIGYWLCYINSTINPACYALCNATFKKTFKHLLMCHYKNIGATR

[13] = target: Histamine H2 receptor (Homo sapiens) (UniProt P25021); conditions: Compound concentration 10.0 uM
[14] = target: Ankyrin repeat and protein kinase domain-containing protein 1 (Homo sapiens) (UniProt Q8NFD2); conditions: Compound concentration 1000.0 nM
[15] = target: BDNF/NT-3 growth factors receptor (Homo sapiens) (UniProt Q16620); conditions: Compound concentration 1000.0 nM
[16] = target: Serine/threonine-protein kinase 33 (Homo sapiens) (UniProt Q9BYT3); conditions: Compound concentration 1000.0 nM
[17] = target: Alpha-2B adrenergic receptor (Homo sapiens) (UniProt P18089); conditions: Compound concentration 10.0 uM
[18] = target: T2, 5-hydroxytryptamine receptor 1A (Homo sapiens) (UniProt P08908); conditions: Compound concentration 10.0 uM
T2 sequence (whole entry): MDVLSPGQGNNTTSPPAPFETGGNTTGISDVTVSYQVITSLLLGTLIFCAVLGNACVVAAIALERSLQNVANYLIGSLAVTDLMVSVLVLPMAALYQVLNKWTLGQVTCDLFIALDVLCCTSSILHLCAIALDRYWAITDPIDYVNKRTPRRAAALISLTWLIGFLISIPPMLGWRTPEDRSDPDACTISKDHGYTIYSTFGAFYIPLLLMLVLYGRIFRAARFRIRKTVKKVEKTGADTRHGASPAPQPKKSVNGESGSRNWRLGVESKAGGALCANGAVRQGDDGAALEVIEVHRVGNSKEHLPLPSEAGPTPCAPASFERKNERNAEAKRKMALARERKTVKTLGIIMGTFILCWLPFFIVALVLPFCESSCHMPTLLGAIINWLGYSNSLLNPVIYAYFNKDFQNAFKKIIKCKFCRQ

[19] = target: Dual serine/threonine and tyrosine protein kinase (Homo sapiens) (UniProt Q6XUX3); conditions: Compound concentration 1000.0 nM
[20] = target: D(3) dopamine receptor (Homo sapiens) (UniProt P35462); conditions: Compound concentration 10.0 uM
[21] = target: Calcium/calmodulin-dependent protein kinase type II subunit beta (Homo sapiens) (UniProt Q13554); conditions: Compound concentration 1000.0 nM
[22] = target: Phosphatidylinositol 5-phosphate 4-kinase type-2 gamma (Homo sapiens) (UniProt Q8TBX8); conditions: Compound concentration 1000.0 nM
[23] = target: Sodium-dependent noradrenaline transporter (Homo sapiens) (UniProt P23975); conditions: Compound concentration 10.0 uM
[24] = target: Dual specificity tyrosine-phosphorylation-regulated kinase 1B (Homo sapiens) (UniProt Q9Y463); conditions: Compound concentration 1000.0 nM
[25] = target: Tyrosine-protein kinase JAK2 (Homo sapiens) (UniProt O60674); conditions: Compound concentration 1000.0 nM
[26] = target: Myosin light chain kinase (Homo sapiens) (UniProt Q32MK0); conditions: Compound concentration 1000.0 nM
[27] = target: Death-associated protein kinase 2 (Homo sapiens) (UniProt Q9UIK4); conditions: Compound concentration 1000.0 nM
[28] = target: Rhodopsin kinase GRK7 (Homo sapiens) (UniProt Q8WTQ7); conditions: Compound concentration 1000.0 nM
[29] = target: Cyclin-dependent kinase 11B (Homo sapiens) (UniProt P21127); conditions: Compound concentration 1000.0 nM

D(3) dopamine receptor (Homo sapiens), sequence (P35462 whole entry): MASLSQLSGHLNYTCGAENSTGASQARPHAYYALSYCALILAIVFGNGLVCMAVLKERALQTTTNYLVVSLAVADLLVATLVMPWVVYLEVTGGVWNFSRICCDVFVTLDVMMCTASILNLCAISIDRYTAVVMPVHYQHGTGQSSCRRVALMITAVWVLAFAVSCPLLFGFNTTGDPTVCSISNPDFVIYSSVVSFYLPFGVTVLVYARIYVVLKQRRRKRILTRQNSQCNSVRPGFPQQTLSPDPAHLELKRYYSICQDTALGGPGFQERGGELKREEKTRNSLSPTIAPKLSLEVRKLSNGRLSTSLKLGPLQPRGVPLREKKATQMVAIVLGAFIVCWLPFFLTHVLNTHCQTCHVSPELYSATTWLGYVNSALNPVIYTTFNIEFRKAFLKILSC
Rhodopsin kinase GRK7 (Homo sapiens), sequence (Q8WTQ7 whole entry): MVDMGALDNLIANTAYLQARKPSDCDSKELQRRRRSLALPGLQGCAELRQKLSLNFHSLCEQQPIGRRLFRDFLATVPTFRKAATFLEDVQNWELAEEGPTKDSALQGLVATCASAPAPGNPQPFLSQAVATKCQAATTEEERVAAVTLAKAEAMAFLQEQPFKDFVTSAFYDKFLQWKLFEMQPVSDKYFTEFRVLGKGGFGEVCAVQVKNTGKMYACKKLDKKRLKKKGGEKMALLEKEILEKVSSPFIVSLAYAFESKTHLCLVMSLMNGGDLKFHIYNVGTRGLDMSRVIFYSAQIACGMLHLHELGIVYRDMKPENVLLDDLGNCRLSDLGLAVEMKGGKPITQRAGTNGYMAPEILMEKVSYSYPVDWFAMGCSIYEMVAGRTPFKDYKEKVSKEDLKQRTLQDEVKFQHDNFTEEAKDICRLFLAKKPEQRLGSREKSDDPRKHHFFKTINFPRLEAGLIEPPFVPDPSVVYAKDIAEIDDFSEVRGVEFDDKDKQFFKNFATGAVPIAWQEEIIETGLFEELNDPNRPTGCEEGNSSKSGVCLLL
Serine/threonine-protein kinase WNK2 (Homo sapiens), sequence (Q9Y3S1 whole entry): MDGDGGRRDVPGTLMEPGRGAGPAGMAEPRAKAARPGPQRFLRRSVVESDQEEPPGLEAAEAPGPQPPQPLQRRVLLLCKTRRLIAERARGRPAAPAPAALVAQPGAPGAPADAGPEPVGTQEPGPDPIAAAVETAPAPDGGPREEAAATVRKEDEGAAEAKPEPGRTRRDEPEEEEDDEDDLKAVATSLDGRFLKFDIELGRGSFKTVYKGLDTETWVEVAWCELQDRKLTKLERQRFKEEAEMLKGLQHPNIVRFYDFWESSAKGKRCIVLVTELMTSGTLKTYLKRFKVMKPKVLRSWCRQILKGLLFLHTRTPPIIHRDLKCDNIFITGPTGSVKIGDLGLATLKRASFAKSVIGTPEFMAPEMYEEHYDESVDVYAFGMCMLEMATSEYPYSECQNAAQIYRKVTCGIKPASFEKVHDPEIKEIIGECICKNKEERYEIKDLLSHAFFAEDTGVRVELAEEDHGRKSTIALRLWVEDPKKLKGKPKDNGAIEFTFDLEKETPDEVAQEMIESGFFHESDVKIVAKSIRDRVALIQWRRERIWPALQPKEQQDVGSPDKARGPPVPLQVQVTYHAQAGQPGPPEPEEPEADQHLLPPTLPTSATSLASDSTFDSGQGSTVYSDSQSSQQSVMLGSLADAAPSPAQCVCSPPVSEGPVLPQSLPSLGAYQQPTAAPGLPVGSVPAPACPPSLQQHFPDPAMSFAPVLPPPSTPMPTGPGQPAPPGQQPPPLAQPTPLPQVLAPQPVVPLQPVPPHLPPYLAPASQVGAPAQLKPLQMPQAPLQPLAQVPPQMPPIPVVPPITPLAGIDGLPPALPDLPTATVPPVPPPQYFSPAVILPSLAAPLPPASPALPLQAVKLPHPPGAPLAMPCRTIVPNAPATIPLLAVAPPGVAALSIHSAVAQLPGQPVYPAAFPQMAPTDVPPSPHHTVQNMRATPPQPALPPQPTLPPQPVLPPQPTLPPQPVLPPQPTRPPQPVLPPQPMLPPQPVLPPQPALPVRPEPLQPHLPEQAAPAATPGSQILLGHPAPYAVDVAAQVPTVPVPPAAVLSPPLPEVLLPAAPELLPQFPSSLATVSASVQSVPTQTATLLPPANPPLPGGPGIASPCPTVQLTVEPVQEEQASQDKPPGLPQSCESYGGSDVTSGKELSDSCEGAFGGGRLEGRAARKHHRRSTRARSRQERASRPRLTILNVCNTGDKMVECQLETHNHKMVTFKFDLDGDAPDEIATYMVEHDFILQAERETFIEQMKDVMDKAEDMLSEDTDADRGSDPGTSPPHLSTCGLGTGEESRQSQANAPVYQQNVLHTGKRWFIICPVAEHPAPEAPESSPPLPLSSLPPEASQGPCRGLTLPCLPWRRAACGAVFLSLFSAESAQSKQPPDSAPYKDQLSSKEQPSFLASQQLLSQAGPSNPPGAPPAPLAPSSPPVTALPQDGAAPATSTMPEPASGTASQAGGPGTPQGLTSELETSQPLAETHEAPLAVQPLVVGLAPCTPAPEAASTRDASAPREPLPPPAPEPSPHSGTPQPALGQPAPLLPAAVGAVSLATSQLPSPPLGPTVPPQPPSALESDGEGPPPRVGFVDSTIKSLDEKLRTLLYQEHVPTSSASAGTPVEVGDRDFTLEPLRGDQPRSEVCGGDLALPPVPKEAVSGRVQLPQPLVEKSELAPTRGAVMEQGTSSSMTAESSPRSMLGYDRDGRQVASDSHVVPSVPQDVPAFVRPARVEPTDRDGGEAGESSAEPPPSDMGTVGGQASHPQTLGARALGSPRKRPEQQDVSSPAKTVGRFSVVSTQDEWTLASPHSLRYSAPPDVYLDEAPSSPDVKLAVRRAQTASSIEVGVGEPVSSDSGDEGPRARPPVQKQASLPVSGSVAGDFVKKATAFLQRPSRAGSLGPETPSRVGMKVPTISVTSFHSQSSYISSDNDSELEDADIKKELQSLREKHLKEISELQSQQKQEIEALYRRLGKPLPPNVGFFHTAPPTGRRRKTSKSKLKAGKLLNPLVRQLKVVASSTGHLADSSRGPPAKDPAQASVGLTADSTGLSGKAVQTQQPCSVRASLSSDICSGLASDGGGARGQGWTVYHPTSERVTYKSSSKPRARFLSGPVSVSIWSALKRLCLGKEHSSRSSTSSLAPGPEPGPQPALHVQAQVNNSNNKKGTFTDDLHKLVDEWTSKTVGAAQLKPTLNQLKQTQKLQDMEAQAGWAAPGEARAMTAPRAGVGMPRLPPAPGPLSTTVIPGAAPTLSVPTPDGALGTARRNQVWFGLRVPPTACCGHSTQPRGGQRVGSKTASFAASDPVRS
Phosphatidylinositol 4-phosphate 5-kinase type-1 alpha (Homo sapiens), sequence (Q99755 whole entry): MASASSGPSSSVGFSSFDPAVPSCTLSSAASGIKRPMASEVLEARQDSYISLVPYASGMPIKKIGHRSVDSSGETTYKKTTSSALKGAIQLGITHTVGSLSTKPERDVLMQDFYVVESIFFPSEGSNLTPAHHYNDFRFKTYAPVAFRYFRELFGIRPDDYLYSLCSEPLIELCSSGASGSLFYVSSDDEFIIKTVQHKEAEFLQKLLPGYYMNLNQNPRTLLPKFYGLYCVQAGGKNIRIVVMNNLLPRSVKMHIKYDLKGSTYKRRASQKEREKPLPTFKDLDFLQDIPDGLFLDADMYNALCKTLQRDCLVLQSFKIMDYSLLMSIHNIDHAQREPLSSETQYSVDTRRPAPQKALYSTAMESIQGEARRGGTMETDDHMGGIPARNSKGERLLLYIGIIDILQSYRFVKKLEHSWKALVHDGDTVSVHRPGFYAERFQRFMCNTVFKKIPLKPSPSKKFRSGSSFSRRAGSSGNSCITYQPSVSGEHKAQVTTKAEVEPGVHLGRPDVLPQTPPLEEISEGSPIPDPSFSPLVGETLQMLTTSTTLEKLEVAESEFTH
Myosin light chain kinase (Homo sapiens), sequence (Q32MK0 whole entry): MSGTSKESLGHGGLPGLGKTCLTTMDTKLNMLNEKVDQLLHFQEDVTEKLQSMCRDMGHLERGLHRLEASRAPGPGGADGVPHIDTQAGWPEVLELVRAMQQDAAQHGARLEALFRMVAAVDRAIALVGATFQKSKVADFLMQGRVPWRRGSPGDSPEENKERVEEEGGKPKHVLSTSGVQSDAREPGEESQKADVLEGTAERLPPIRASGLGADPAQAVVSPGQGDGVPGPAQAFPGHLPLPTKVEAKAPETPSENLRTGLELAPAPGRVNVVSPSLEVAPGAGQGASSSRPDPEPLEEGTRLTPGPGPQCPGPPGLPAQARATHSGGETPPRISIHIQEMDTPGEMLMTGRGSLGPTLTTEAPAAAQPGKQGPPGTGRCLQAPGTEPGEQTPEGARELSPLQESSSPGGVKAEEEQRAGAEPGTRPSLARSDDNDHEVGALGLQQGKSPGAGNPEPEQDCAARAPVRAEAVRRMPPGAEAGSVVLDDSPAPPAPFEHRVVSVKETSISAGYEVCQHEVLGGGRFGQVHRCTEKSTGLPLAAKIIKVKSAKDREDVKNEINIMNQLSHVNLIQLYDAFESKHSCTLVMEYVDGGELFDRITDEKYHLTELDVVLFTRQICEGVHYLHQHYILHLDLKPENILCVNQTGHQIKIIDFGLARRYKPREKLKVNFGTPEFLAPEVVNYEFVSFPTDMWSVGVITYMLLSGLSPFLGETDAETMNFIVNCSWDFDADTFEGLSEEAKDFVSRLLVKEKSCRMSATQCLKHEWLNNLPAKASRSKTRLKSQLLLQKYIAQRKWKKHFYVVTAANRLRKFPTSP
Phosphatidylinositol 5-phosphate 4-kinase type-2 gamma (Homo sapiens), sequence (Q8TBX8 whole entry): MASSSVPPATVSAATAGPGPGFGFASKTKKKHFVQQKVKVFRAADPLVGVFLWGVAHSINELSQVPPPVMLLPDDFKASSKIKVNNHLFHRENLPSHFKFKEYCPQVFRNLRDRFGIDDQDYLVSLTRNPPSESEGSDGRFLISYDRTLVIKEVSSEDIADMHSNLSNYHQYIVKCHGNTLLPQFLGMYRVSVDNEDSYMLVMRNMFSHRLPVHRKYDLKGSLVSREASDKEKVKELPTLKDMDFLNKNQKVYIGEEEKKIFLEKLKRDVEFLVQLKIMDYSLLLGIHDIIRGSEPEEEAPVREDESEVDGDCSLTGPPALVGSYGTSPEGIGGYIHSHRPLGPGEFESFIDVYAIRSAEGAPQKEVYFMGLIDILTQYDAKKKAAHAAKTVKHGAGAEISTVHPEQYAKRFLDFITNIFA

Structure (SMILES) | residual activity [1] [%] | residual activity [2] [%] | residual activity [3] [%] | residual activity [4] [%] | residual activity [5] [%] | residual activity [6] [%] | residual activity [7] [%] | residual activity [8] [%] | residual activity [9] [%] | residual activity [10] [%] | residual activity [11] [%] | inhibition [12] [%] | inhibition [13] [%] | residual activity [14] [%] | residual activity [15] [%] | residual activity [16] [%] | inhibition [17] [%] | inhibition [18] [%] | residual activity [19] [%] | inhibition [20] [%] | also measured
NS(=O)(=O)c1cc(NC(=O)C2(c3ccccc3Cl)CC2)ccc1Oc1cccc(Cl)c1 [BAY-207] | 100 | 100 | 99 | 89 | 100 | 88 | 65 | 82 | 70 | 76 | 54 | 2.03 | 11.5 | 97 | 100 | 100 | 43.4 | 4.89 | 93 | 10.5 | residual activity [21]: 100%; residual activity [22]: 62%; inhibition [23]: 22.4%; residual activity [24]: 86%; residual activity [25]: 100%; residual activity [26]: 89%; residual activity [27]: 100%; residual activity [28]: 100%; residual activity [29]: 83%
NS(=O)(=O)c1cc(NC(=O)Cc2ccccc2)ccc1Oc1cccc(Cl)c1 [BAY-1797] | 100 | 100 | 97 | 89 | 100 | 0 | 68 | 100 | 66 | 87 | 100 | -8.33 | -4.85 | 78 | 66 | 100 | 56.6 | -1.77 | 83 | 0.87 | residual activity [21]: 100%; residual activity [22]: 100%; inhibition [23]: 0.53%; residual activity [24]: 100%; residual activity [25]: 73%; residual activity [26]: 89%; residual activity [27]: 90%; residual activity [28]: 77%; residual activity [29]: 71%
